Reference: ChEMBL document CHEMBL1155906, “Structural modifications of N-arylamide oxadiazoles: Identification of N-arylpiperidine oxadiazoles as potent and selective agonists of CB2” (Bioorg Med Chem Lett, 2008)
In brackets after ≈: the same amount, converted by molar mass.

What was measured:
Cannabinoid receptor 1 [1] = molecular target: T1, Cannabinoid receptor 1 (Homo sapiens, UniProt P21554); experiment: Agonist activity at human CB1 receptor assessed as inhibition of forskolin-induced increase in intracellular cAMP relative to CP-55940; assay type: functional, cell-based
T1 sequence (P21554 whole entry): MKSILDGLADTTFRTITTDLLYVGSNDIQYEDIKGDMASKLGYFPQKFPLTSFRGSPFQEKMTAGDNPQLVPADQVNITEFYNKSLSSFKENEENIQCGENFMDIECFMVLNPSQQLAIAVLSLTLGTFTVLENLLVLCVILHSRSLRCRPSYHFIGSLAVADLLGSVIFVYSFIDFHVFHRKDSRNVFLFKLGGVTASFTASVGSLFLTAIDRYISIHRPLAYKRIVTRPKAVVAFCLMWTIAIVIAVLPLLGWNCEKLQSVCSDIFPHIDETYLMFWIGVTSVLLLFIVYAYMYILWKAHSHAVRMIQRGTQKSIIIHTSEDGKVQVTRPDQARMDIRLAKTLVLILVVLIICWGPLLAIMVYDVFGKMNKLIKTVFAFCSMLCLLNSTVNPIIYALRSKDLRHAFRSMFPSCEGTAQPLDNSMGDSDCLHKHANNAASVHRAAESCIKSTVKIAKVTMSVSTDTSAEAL

Histamine H1 receptor [2] = molecular target: T2, Histamine H1 receptor (Homo sapiens, UniProt P35367); experiment: Inhibition of histamine H1 receptor
T2 sequence (P35367 whole entry): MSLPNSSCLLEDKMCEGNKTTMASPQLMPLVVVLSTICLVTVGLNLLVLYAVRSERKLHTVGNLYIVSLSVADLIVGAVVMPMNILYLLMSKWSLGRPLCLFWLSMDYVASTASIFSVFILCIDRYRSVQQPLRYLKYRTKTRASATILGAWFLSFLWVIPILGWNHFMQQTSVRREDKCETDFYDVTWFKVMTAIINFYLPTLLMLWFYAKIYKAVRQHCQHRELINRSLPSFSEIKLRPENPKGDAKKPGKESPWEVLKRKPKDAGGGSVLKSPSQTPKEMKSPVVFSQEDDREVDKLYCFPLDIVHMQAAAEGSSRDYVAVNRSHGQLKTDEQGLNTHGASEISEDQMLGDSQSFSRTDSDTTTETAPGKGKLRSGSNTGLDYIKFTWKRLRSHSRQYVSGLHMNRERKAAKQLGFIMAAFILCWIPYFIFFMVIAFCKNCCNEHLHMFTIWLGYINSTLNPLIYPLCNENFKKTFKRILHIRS

human MDR1 (P-gp) = experiment: Apparent permeability across pig LLC-PK1 cells transfected with human MDR1 at 5 uM in presence of 0.1% BSA; assay type: ADME, cell-based, Sus scrofa
[3] = Inhibition of CXR2 receptor
Mu-type opioid receptor [4] = molecular target: T3, Mu-type opioid receptor (Homo sapiens, UniProt P35372); experiment: Inhibition of mu opioid receptor
T3 sequence (P35372 whole entry): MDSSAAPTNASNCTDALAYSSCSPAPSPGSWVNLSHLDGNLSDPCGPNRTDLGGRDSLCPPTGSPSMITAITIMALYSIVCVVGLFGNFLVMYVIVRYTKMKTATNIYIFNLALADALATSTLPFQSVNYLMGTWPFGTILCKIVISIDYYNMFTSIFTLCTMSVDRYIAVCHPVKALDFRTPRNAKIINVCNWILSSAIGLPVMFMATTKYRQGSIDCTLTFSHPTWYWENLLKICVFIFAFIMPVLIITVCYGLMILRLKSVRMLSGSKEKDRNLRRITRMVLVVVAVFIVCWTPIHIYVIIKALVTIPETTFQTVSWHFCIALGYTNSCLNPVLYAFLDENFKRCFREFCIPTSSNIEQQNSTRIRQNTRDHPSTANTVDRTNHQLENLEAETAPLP

[5] = Metabolic stability in rat liver microsome assessed as intrinsic clearance; assay type: ADME; conditions: liver microsomes
Cannabinoid receptor 2 [6] = molecular target: T4, Cannabinoid receptor 2 (Homo sapiens, UniProt P34972); experiment: Agonist activity at human CB2 receptor expressed in insect Sf9 cells assessed as effect on Eu-GTP binding relative to CP-55940
T4 sequence (P34972 whole entry): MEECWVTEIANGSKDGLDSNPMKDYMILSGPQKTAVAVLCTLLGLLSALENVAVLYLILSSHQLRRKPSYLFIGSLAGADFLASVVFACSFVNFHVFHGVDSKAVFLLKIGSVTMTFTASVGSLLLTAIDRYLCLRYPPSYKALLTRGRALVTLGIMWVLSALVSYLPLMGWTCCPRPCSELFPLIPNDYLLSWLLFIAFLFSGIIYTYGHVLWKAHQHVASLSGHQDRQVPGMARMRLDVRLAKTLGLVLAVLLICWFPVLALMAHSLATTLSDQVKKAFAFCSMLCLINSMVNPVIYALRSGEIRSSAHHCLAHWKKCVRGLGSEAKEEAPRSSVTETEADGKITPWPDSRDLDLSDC

LLC-PK1 [7] = experiment: Ratio of permeability from basolateral to apical side to apical to basolateral side in pig wild-type LLC-PK1 cells at 5 uM in presence of 0.1% BSA; assay type: ADME, cell-based, Sus scrofa; conditions: llc-pk1, 5 µM
[8] = molecular target: T5, Muscarinic acetylcholine receptor M1 (Homo sapiens, UniProt P11229); experiment: Inhibition of muscarinic M1 receptor
T5 sequence (P11229 whole entry): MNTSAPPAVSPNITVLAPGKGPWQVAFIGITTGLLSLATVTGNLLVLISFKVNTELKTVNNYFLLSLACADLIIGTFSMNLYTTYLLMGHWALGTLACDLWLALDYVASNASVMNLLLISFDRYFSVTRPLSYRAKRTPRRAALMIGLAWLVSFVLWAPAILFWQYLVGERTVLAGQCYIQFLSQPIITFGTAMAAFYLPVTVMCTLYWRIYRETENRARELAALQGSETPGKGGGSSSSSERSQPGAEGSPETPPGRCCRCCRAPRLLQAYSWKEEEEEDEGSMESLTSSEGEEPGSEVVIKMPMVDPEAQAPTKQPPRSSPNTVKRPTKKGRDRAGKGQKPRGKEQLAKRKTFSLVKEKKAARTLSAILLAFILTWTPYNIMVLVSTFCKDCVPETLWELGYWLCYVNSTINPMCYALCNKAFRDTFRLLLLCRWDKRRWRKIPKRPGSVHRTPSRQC

[9] = Solubility in simulated intestinal fluid; assay type: physicochemical
[10] = Cmax in Sprague-Dawley rat at 10 mg/kg, po; assay type: ADME, organism-based; design: dose 10 mg/kg, route oral; conditions: in vivo
[11] = molecular target: T6, 5-hydroxytryptamine receptor 1A (Homo sapiens, UniProt P08908); experiment: Inhibition of 5HT1A receptor
T6 sequence (P08908 whole entry): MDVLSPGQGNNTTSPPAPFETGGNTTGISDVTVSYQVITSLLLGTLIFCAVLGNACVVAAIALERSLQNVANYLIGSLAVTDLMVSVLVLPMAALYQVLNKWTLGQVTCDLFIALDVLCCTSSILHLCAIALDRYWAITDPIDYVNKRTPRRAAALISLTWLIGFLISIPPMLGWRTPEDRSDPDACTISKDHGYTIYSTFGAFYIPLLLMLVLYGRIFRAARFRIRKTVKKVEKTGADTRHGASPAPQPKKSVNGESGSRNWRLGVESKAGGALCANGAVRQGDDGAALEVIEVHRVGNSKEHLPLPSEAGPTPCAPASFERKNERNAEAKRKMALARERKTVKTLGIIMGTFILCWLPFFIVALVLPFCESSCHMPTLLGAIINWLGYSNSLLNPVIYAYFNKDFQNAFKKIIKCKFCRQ

[12] = AUC (0 to 24 hrs) in Sprague-Dawley rat at 10 mg/kg, po; assay type: ADME, organism-based; design: time < 24 hr, dose 10 mg/kg, route oral; conditions: plasma
[13] = molecular target: Voltage-gated inwardly rectifying potassium channel KCNH2 (Homo sapiens, UniProt Q12809); experiment: Displacement of radiolabeled dofetilide from human ERG
[14] = Solubility in 0.01 N HCl; assay type: physicochemical
Histamine H1 receptor [15] = molecular target: T2, Histamine H1 receptor; experiment: Agonist activity at histamine H1 receptor; assay type: functional
Cannabinoid receptor 1 [16] = molecular target: T1, Cannabinoid receptor 1; experiment: Agonist activity at human CB1 receptor expressed in insect Sf9 cells assessed as effect on Eu-GTP binding relative to CP-55940
Substance-P receptor [17] = molecular target: T7, Substance-P receptor (Homo sapiens, UniProt P25103); experiment: Inhibition of NK1 receptor
T7 sequence (P25103 whole entry): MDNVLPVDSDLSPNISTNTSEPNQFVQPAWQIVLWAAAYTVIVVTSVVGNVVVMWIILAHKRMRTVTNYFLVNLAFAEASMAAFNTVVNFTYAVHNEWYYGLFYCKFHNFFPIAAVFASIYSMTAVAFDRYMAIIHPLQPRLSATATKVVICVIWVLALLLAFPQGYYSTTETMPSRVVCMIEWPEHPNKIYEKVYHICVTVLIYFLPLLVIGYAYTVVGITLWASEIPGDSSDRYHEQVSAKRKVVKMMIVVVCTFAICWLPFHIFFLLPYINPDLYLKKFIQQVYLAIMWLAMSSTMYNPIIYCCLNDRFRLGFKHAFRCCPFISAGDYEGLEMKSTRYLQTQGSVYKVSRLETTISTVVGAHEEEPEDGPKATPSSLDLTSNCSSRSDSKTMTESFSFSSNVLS

Cannabinoid receptor 1 [18] = molecular target: T1, Cannabinoid receptor 1; experiment: Agonist activity at human CB1 receptor expressed in insect Sf9 cells assessed as effect on Eu-GTP binding
D(2) dopamine receptor [19] = molecular target: T8, D(2) dopamine receptor (Homo sapiens, UniProt P14416); experiment: Inhibition of dopamine D2 receptor
T8 sequence (P14416 whole entry): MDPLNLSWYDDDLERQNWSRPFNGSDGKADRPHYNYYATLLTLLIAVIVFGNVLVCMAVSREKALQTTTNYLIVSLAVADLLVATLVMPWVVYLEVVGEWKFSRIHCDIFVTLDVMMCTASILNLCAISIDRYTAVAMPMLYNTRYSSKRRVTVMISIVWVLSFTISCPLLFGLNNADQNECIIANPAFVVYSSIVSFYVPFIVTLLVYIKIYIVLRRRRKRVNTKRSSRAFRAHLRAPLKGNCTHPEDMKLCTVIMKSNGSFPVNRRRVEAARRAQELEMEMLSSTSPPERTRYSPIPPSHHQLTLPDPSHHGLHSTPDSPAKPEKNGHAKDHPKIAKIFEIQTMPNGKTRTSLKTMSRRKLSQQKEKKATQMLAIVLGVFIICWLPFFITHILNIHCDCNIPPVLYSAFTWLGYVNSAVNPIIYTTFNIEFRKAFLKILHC

Cannabinoid receptor 2 [20] = molecular target: T4, Cannabinoid receptor 2; experiment: Agonist activity at human CB2 receptor assessed as inhibition of forskolin-induced increase in intracellular cAMP relative to CP-55940; assay type: functional, cell-based
[21] = molecular target: T6, 5-hydroxytryptamine receptor 1A; experiment: Agonist activity at 5HT1A receptor; assay type: functional
[22] = Inhibition of adrenergic alpha1 receptor
[23] = Bioavailability in Sprague-Dawley rat at 10 mg/kg, po; assay type: ADME, organism-based; conditions: in vivo
[24] = molecular target: T9, 5-hydroxytryptamine receptor 2B (Homo sapiens, UniProt P41595); experiment: Inhibition of 5HT2B receptor
T9 sequence (P41595 whole entry): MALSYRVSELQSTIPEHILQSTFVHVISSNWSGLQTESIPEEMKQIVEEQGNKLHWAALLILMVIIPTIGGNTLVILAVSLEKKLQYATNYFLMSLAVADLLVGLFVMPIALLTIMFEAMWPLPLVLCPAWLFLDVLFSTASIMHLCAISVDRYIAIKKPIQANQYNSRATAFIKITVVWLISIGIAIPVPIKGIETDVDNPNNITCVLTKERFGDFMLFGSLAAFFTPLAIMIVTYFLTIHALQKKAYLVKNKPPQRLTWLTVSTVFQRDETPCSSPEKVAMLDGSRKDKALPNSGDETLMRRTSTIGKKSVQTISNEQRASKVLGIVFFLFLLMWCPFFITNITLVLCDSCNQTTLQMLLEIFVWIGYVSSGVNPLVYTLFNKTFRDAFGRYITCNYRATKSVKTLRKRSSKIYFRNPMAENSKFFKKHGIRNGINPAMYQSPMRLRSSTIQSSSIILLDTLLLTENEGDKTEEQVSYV

[25] = Apparent permeability across pig wild-type LLC-PK1 cells at 5 uM in presence of 0.1% BSA; assay type: ADME, cell-based, Sus scrofa
Cannabinoid receptor 1 [26] = molecular target: T1, Cannabinoid receptor 1; experiment: Agonist activity at human CB1 receptor assessed as inhibition of forskolin-induced increase in intracellular cAMP; assay type: functional, cell-based
[27] = molecular target: T10, Somatostatin receptor type 4 (Homo sapiens, UniProt P31391); experiment: Inhibition of sst4 receptor
T10 sequence (P31391 whole entry): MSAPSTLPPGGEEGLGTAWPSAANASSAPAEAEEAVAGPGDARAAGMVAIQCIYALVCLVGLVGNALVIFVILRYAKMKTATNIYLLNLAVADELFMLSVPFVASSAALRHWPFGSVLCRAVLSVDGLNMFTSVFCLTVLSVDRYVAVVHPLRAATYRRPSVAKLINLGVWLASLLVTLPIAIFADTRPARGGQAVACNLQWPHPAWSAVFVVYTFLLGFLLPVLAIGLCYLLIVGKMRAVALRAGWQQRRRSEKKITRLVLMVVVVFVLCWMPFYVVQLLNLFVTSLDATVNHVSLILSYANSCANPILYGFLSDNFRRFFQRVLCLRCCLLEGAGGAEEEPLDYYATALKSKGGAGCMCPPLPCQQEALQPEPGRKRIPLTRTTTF

D(2) dopamine receptor [28] = molecular target: T8, D(2) dopamine receptor; experiment: Agonist activity at dopamine D2 receptor; assay type: functional
Cannabinoid receptor 2 [29] = molecular target: T4, Cannabinoid receptor 2; experiment: Agonist activity at human CB2 receptor assessed as inhibition of forskolin-induced increase in intracellular cAMP; assay type: functional, cell-based
[30] = molecular target: T5, Muscarinic acetylcholine receptor M1; experiment: Agonist activity at muscarinic M1 receptor; assay type: functional
Substance-P receptor [31] = molecular target: T7, Substance-P receptor; experiment: Agonist activity at NK1 receptor; assay type: functional
[32] = molecular target: T9, 5-hydroxytryptamine receptor 2B; experiment: Agonist activity at 5HT2B receptor; assay type: functional
LLC-PK1 [33] = experiment: Ratio of permeability from basolateral to apical side to apical to basolateral side in pig LLC-PK1 cells expressing human MDR1 at 5 uM in presence of 0.1% BSA; assay type: ADME, cell-based, Sus scrofa; conditions: llc-pk1, 5 µM
[34] = Half life in Sprague-Dawley rat at 0.5 mg/kg, iv; assay type: ADME, organism-based; design: dose 0.5 mg/kg, route intravenous; conditions: in vivo
Mu-type opioid receptor [35] = molecular target: T3, Mu-type opioid receptor; experiment: Agonist activity at mu opioid receptor; assay type: functional
[36] = Volume of distribution at steady state in Sprague-Dawley rat at 0.5 mg/kg, iv; assay type: ADME, organism-based; design: dose 0.5 mg/kg, route intravenous; conditions: in vivo, read-out: Vdss
Cannabinoid receptor 2 [37] = molecular target: T4, Cannabinoid receptor 2; experiment: Agonist activity at human CB2 receptor expressed in insect Sf9 cells assessed as effect on Eu-GTP binding
[38] = Metabolic stability in human liver microsome assessed as intrinsic clearance; assay type: ADME; conditions: liver microsomes
[39] = Inhibition of CCR2b receptor
[40] = Solubility in phosphate buffer saline; assay type: physicochemical; conditions: phosphate buffered saline
[41] = molecular target: T10, Somatostatin receptor type 4; experiment: Agonist activity at sst4 receptor; assay type: functional
[42] = Clearance in Sprague-Dawley rat at 0.5 mg/kg, iv; assay type: ADME, organism-based; design: dose 0.5 mg/kg, route intravenous; conditions: in vivo
[43] = molecular target: T11, Beta-1 adrenergic receptor (Homo sapiens, UniProt P08588); experiment: Inhibition of adrenergic beta-1 receptor
T11 sequence (P08588 whole entry): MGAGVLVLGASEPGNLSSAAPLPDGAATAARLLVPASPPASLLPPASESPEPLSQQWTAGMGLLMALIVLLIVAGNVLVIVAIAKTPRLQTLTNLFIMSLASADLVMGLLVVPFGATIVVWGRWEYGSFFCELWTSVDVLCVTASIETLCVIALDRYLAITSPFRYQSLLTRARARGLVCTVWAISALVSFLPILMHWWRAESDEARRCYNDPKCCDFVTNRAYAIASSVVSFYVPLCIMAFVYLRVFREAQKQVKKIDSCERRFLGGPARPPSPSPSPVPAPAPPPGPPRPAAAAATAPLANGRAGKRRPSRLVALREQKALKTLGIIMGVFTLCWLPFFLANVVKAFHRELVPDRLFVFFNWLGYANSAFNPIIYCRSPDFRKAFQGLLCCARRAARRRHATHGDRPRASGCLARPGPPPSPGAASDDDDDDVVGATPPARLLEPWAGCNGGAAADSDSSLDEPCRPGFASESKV

[44] = Agonist activity at CCR2b receptor; assay type: functional
[45] = Agonist activity at adrenergic alpha1 receptor; assay type: functional
[46] = molecular target: T11, Beta-1 adrenergic receptor; experiment: Agonist activity at adrenergic beta-1 receptor; assay type: functional
[47] = Agonist activity at CXR2 receptor; assay type: functional

For `Fc1ccc(-c2noc(C3CCN(c4cnc5ccc(Cl)cc5c4)CC3)n2)c(Cl)c1`, the Emax (Cannabinoid receptor 1 [1]) was 19%, the IC50 (Histamine H1 receptor [2]) was > 50 µM and the Papp at 5 µM (human MDR1 (P-gp)) was 10.7 ×10⁻⁶ cm/s. The IC50 [3] was > 50 µM, the IC50 (Mu-type opioid receptor [4]) was > 50 µM and the microsomal CLint [5] was 32 µL/min/mg. For the same compound, the Emax (Cannabinoid receptor 2 [6]) was 120%, the Ratio (LLC-PK1 [7]) was 0.9 and the IC50 [8] was > 50 µM. For the same compound, the solubility [9] was 2 µg/mL (≈ 4.51 µM), the Cmax [10] was 682 ng/mL and the IC50 [11] was > 50 µM. The AUC(0-t) at 24 h [12] was 5240 ng·h/mL, the IC50 [13] was 0.5 µM and the solubility [14] was < 1 µg/mL. The EC50 (Histamine H1 receptor [15]) was > 50 µM, the Emax (Cannabinoid receptor 1 [16]) was 55% and the IC50 (Substance-P receptor [17]) was > 50 µM. For the same compound, the EC50 (Cannabinoid receptor 1 [18]) was 1.43 µM, the IC50 (D(2) dopamine receptor [19]) was > 50 µM and the Emax (Cannabinoid receptor 2 [20]) was 102%. The EC50 [21] was > 50 µM, the IC50 [22] was > 50 µM and the bioavailability [23] was 2%. The IC50 [24] was > 50 µM, the Papp at 5 µM [25] was 9.95 ×10⁻⁶ cm/s and the EC50 (Cannabinoid receptor 1 [26]) was > 2 µM. The IC50 [27] was > 50 µM, the EC50 (D(2) dopamine receptor [28]) was > 50 µM and the EC50 (Cannabinoid receptor 2 [29]) was 0.011 µM. For the same compound, the EC50 [30] was > 50 µM, the EC50 (Substance-P receptor [31]) was > 50 µM and the EC50 [32] was > 50 µM. The Ratio (LLC-PK1 [33]) was 0.9, the half-life [34] was 8.9 h and the EC50 (Mu-type opioid receptor [35]) was > 50 µM. It also gave a Vd [36] of 0.365 L/kg, an EC50 (Cannabinoid receptor 2 [37]) of 0.007 µM and a microsomal CLint [38] of 38 µL/min/mg. For the same compound, the IC50 [39] was > 50 µM, the solubility [40] was < 1 µg/mL and the EC50 [41] was > 50 µM. The clearance [42] was 0.65 mL/min/kg, the IC50 [43] was > 50 µM and the EC50 [44] was > 50 µM. The EC50 [45] was > 50 µM, the EC50 [46] was > 50 µM and the EC50 [47] was > 50 µM.
